Assay in all cases: inhibition of tumour cell growth, NCI panel, 48 h
Assay [1] has as its system A549 NSCLC.
The subject of assay [2] is BT-549 breast.
Assay [3] has as its system CCRF-CEM leukemia.
Assay [4] has as its system COLO 205 colon.
Assay [5] relates to HCT-116 colon.
Assay [6] concerns HS 578T breast.
Assay [7] has as its system OVCAR-5 ovarian.
The test system of assay [8] is SF-268 CNS.
The subject of assay [9] is SK-MEL-2 melanoma.
Assay [10] deals with UO-31 renal.

“And” between values parts separate entries of the source, which are not always exact repeats. Equal entries are not always repeated.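 Exposure lasted 48 hours, with cells grown in 96-well plates and compounds tested at five concentrations. GI50 = concentration required for 50% inhibition of growth. TGI: total growth inhibition.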

Take `CC(C)C[C@H](NC(=O)CCn1ccc2ncccc2c1=O)B(O)O`: the GI50 in assay [1] was 36.1 µM; in assay [2], 4.86 µM; in assay [3], 0.308 µM; in assay [4], 10.3 µM; in assay [5] it was 3.64 µM; in [6], 13.2 µM. In addition, the GI50 in assay [7] was 23.2 µM; in [8], 12.6 µM; in assay [9], 11 µM; in [10] it was 19.6 µM. Besides, the TGI in assay [1] is more than 100 µM; in [2], 23.1 µM; in assay [3], more than 26.5 µM; in [4], more than 100 µM; in assay [5], 19 µM; in assay [6], more than 71.7 µM. The TGI in assay [7] is more than 100 µM; in assay [8], more than 61.2 µM; in assay [9] it was more than 79.2 µM; in assay [10] it was more than 100 µM.
Take `CC(C)C[C@H](NC(=O)[C@@H](NC(=O)c1cccc(-c2ccccc2)n1)[C@@H](C)O)B(O)O`: the GI50 is 0.0173 µM and 0.0188 µM in [1]; 0.0047 µM in assay [2]; 0.00813 µM and < 0.0126 µM in assay [4]; 0.00344 µM in assay [5]; 0.00404 µM and < 0.0107 µM in [6]; 0.00843 µM and < 0.0112 µM in [7]. The GI50 in assay [8] was 0.00952 µM and 0.012 µM; in assay [9], 0.00387 µM; in assay [10] it was 0.0215 µM and 0.0183 µM. Further, the TGI in assay [1] was 8.58 µM; in [3], more than 5.16 µM; in assay [4] it was 3.3 µM; in [5], 0.0142 µM and 0.0127 µM; in assay [6], more than 100 µM; in [7], 0.0513 µM. The TGI in [8] is 0.0436 µM; in [9], 0.0187 µM and < 0.0195 µM; in assay [10], 0.0849 µM and 0.114 µM.
With `CN1C[C@@H]2Cn3c(c(C4=C(c5cn(C)c6ccccc56)C(=O)NC4=O)c4ccccc43)C[C@H]2C1`, the GI50 in [1] is 4.4 µM and 3.51 µM; in assay [2] it was 4.51 µM and 4.36 µM; in assay [3] it was 2.13 µM and 5.69 µM; in [4], 3.09 µM and 1.96 µM; in assay [5] it was 4.2 µM and 3.02 µM; in [6], 2.71 µM and 2.63 µM. For the same compound, the GI50 is 6.86 µM and 5.42 µM in [7]; 4.8 µM and 4.93 µM in assay [8]; 4.52 µM and 3.91 µM in assay [9]; 2.01 µM and 2.98 µM in assay [10]. The TGI in [1] was 10.5 µM and 8.75 µM; in [2], 8.4 µM and 8.59 µM; in [3], 11.7 µM and 17.6 µM; in assay [4], 6.7 µM and 5.72 µM; in assay [5], 9.66 µM and 8.22 µM; in [6], 8.34 µM and 9.51 µM. Also, the TGI in assay [7] was 23.1 µM and 17.2 µM; in [8], 9.46 µM and 9.97 µM; in assay [9], 8.92 µM and 7.75 µM; in assay [10] it was 5.38 µM and 6.66 µM.
For `C=C1C(=O)OC2/C=C(\CO)CC/C=C(\CO)CC(OC(=O)C(C)C)C12` (configuration not stated), the TGI in assay [1] was 37 µM; in [2] it was 23.4 µM; in [3] it was more than 33.2 µM; in assay [4], 4.18 µM; in assay [5], 47.9 µM; in [6] it was 49 µM. Moreover, the TGI in [7] came out at 29.8 µM; in assay [8], 19.8 µM; in [9] it was 30.8 µM; in assay [10], 27.4 µM.
As for `Cc1ncc(C(=O)Nc2ccc(CN3CCN(C)CC3)c(C(F)(F)F)c2)cc1C#Cc1c(N)ncc2ccccc12`, the GI50 in assay [1] is 0.488 µM; in assay [2], 0.894 µM; in assay [3], 0.494 µM; in assay [4] it was 0.131 µM; in assay [5], 0.159 µM; in assay [6] it was 0.356 µM. For the same compound, the GI50 in [7] is 0.415 µM; in [8], 0.448 µM; in assay [9], 0.545 µM; in [10], 0.46 µM. The TGI in assay [1] was 1.03 µM; in assay [2] it was 1.96 µM; in assay [3] it was 1.35 µM; in [4], 0.619 µM; in assay [5], 0.62 µM; in [6], 1.26 µM. The TGI in assay [7] worked out at 0.985 µM; in assay [8] it was 1.09 µM; in [9] it was 1.25 µM; in [10], 1.27 µM.
Consider `NS(=O)(=O)c1ccc(-n2ncc3c(Nc4ccccc4)ncnc32)cc1`, for which the GI50 in assay [1] was 14.3 µM; in [2], 30.3 µM; in assay [3] it was 17.7 µM; in assay [4] it was 21.1 µM; in assay [5], 27.4 µM; in assay [6], 33.8 µM. Further, the GI50 in assay [7] was 34.9 µM; in assay [8], 43.1 µM; in assay [9] it was 44.3 µM; in [10] it was 23.9 µM. In addition, the TGI is more than 100 µM in assay [1]; 92.8 µM in [2]; 92.5 µM in [3]; more than 100 µM in assay [4]; more than 100 µM in assay [5]; more than 100 µM in [6]. Besides, the TGI in assay [7], in assay [8], in assay [9] and in assay [10] was more than 100 µM each time.
As to `Cn1cnc2c(F)c(Nc3ccc(Br)cc3F)c(C(=O)NOCCO)cc21`, the GI50 was 5.87 µM in assay [1]; more than 60.2 µM in [2]; more than 100 µM in [3]; 0.0113 µM and 0.0236 µM in [4]; 0.203 µM and 0.317 µM in assay [5]; > 2.14 µM and 33.6 µM in assay [6]. The GI50 in [7] was 0.0286 µM and 0.022 µM; in assay [8], > 2.05 µM and 50.5 µM; in assay [9], 0.0296 µM and 0.0113 µM; in [10] it was 7.41 µM. The TGI in [1] was more than 100 µM; in assay [2], more than 100 µM; in [3] it was more than 100 µM; in assay [5], more than 100 µM; in assay [6], more than 100 µM; in [7], more than 48.4 µM. Besides, the TGI in assay [8] was more than 100 µM; in [9], 0.448 µM and 0.0766 µM; in assay [10], more than 100 µM.
In the case of `CCOC(=O)C(C(=O)OCC)C(=O)c1ccccc1C(=O)c1ccccc1`, the TGI in assay [1], in assay [2], in assay [3], in [4], in assay [5] and in assay [6] was more than 100 µM in each case. The TGI in assay [7], in assay [8], in [9] and in assay [10] was more than 100 µM throughout.

For the origin of these results see PubChem BioAssay (NCI).
